# Reference: PMC4569415, “Pro-Oxidant Activity of Amine-Pyridine-Based Iron Complexes Efficiently Kills Cancer and Cancer Stem-Like Cells” (PLoS ONE, 2015)
# Structures can show the parent of a compound that is named as a salt.
# Experiments:
# CAPAN-1 cells [1] = experiment: Cellular labile iron pool with calcein-AM; type: cell-based, human; details: CAPAN-1, 100 μmol/L, 24 h
# Description: The cellular labile iron pool was determined with calcein-AM. CAPAN-1 cells (125 000 cells/ well) were seeded in 24-well plates and incubated for 24 h. Then, cells were treated for 24 h with 10 μmol/L of compound 1, 2 or 5 at 37°C. In some experiments, cells were incubated for 2 h with 100 μmol/L of DFO or 100 μmol/L FeCl2. Cells exposed to the vehicle alone were used as a control. After treatments, cells were washed with PBS and incubated with calcein-AM (0.25 μmol/L) for 30 min at 37°C in the dark. Subsequently, cells were washed and collected with trypsin and the geometric mean fluorescence intensity of 10 000 cells was determined by flow cytometry as described.
# MCF-7 and CAPAN-1 cells = experiment: MTT cell viability with modulators (QVD-Oph, FeCl2); type: cell-based, human; details: FeCl2 alone at 1, 10 or 100 μmol/L, 48 h
# Description: (§1) The cytotoxic activity of the compounds was determined by MTT reduction assay as described. Compounds were diluted in Milli-Q water to obtain 1 mmol/L stock solutions. Appropriate aliquots of these solutions were diluted in the corresponding cell culture medium to obtain the final working concentrations. Aliquots of 5000 1BR3G cells, 6000 MCF-7, 6000 PC-3 cells, 10 000 CAPAN-1 cells, 4000 MCF 10A cells, 4000 HMLE cells or 4000 CCD-18Co cells were seeded in 96-well plates, 24 h prior to the treatments. Hematological cell lines were seeded at 400 000 cells/mL. Cells were treated with the corresponding compound at concentrations ranging from 0 to 100 μmol/L for 48 h. Three replicates for each compound were used. The IC50 was established for each compound by standard non-linear regression and curve fitting using GraphPad Prism (Graph Pad software Inc., La Jolla, CA, USA).
# Fig 4 Induction of caspase activity. (A) The indicated cell lines were treated for 48 h with compounds 1, 2 and 5 (10 μmol/L) and caspase 3/7 activity was measured as indicated in Materials and Methods. Bar charts show the fold increase in caspase activity relative to untreated (control) and represent the mean±SD from three independent experiments performed in triplicate. (B) MCF-7 and CAPAN-1 cells were treated for 48 h with the ligands (10 μM) in the absence (-) or presence (+) of the pan-caspase inhibitor QVD-Oph (20 μM) and cell viability was measured with the MTT assay. […] Data represents the mean ± SD of 3 independent experiments performed in triplicate. The differences between absence and presence of QVD-OPh treatment were statistically significant at * p<0.05, **p<0.01 and ***p<0.001.
# Fig 9 Effects of iron on 1, 2 and 5 activity. (A) Effect of 2 h FeCl2 pre-incubation (FeCl2 p) (dotted line) or co-incubation (FeCl2 c) (dashed line) at 1, 10 or 100 μmol/L on the cytotoxicity of 2 (5 μmol/L) in MCF-7 and CAPAN-1 cells. FeCl2 alone was included as a control (solid line). Cell viability was determined after 48 h of treatment by the MTT assay. (B) Effect of FeCl2 pre-incubation or co-incubation (100 μmol/L) on the cytotoxicity of 2 (5 μmol/L), 1 and 5 (10 μmol/L). Cells treated with the ligands alone were included as a reference (control). (C) ROS induction in CAPAN-1 cells after 24 h treatment with 2 (10 μmol/L) alone, together with FeCl2 or after FeCl2 pre-incubation (at 100 μmol/L). Results are presented as a percentage of untreated cells and represent mean±SD of 3 independent experiments. *p < 0.05 versus control cells.
# Hemolytic assay = type: cell-based; details: human, erythrocyte suspension of fresh human blood (5% vol/vol)
# Description: The hemolytic activity of the compounds at 100 μmol/L was evaluated by determining hemoglobin release from erythrocyte suspensions of fresh human blood (5% vol/vol) as described.
# CAPAN-1 cells [2] = experiment: MTT cytotoxicity assay; type: cell-based, human; details: MTT, 48 h of compound exposure
# Description: as §1
# MCF-7 cells [3] = experiment: MTT cytotoxicity assay; type: cell-based, human; details: MTT, 48 h of compound exposure
# Description: as §1
# HMLE = experiment: MTT cytotoxicity assay; type: cell-based; details: Homo sapiens, 48 h of treatment, non malignant cells
# Description: as §1
# MCF-10A = experiment: MTT cytotoxicity assay; type: cell-based; details: Homo sapiens, 48 h of treatment, non malignant cells
# Description: as §1
# CCD-18Co = experiment: MTT cytotoxicity assay; type: cell-based; details: Homo sapiens, 48 h of treatment, non malignant cells
# Description: as §1
# JURKAT = experiment: MTT cytotoxicity assay; type: cell-based; details: Homo sapiens, 48 h of treatment
# Description: as §1
# 1BR3G = experiment: MTT cytotoxicity assay; type: cell-based; details: Homo sapiens, 48 h of treatment, non malignant cells
# Description: as §1
# PC-3 = experiment: MTT cytotoxicity assay; type: cell-based; details: Homo sapiens, 48 h of treatment
# Description: as §1
# Z-138 = experiment: MTT cytotoxicity assay; type: cell-based; details: Homo sapiens, 48 h of treatment
# Description: as §1
# HMLER cells = experiment: MTT cytotoxicity assay in non-CS-like parental cells; type: cell-based; details: Homo sapiens, 48 h
# Description: as §1
# (§2) Fig 2 Cell viability assay. (A) Cytotoxic activity of compounds 1, 2, and 5 against cancer cells. The indicated cell lines were treated for 48 h with ligands (10 μmol/L) and cell viability was measured with the MTT assay. Data represents the percentage of viable cells relative to untreated cells (control). (B) Cytotoxicity of doxorubicin and compounds 1, 2 and 5 against CS-like cells. CS-like HMLER-shEcad cells and non-CS-like HMLER isogenic parental cells were treated for 48 h with graded concentrations of doxorubicin, 1, 2 and 5. Cell viability was measured with the MTT assay. For each treatment, the percentage of viable cells relative to untreated cells is indicated. Data represents the mean±SD of 3 independent experiments performed in triplicate.
# [4] = test system: CS-like HMLER-shEcad cells; experiment: MTT cytotoxicity assay in cancer stem-like cells; type: cell-based, human; details: 48 h
# Description: as §1, §2
# MCF-7 cells [5] = experiment: Cellular labile iron pool with calcein-AM; type: cell-based, human; details: MCF-7
SMILES,hemolysis at 100 µM (Hemolytic assay) [%],"IC50 (CAPAN-1 cells [2]; Homo sapiens, CAPAN-1) [µM]","IC50 (MCF-7 cells [3]; Homo sapiens, MCF7) [µM]",IC50 (HMLE) [µM],IC50 (MCF-10A) [µM],IC50 (CCD-18Co) [µM],IC50 (JURKAT) [µM],IC50 (1BR3G) [µM],IC50 (PC-3) [µM],IC50 (Z-138) [µM],other results
"[Cl][Fe][Cl] [FeCl2, reference compound]",–,–,–,–,–,–,–,–,–,–,"calcein fluorescence intensity, % of control cells (CAPAN-1 cells [1]): 74.2±15.5%; effect on cell viability (MCF-7 and CAPAN-1 cells): did not affect the viability"
CN1CCN(C)CCN(Cc2ccccn2)CC1 [Compound 4],0,32 ± 10.4,88.5 ± 0.7,47.7 ± 4.5,> 100,> 100,> 100,78 ± 8.5,> 100,23.1 ± 1.8,–
"COc1cccc2c1C(=O)c1c(O)c3c(c(O)c1C2=O)C[C@@](O)(C(=O)CO)C[C@@H]3O[C@H]1C[C@H](N)[C@H](O)[C@H](C)O1 [doxorubicin, reference compound]",–,–,–,–,–,–,–,–,–,–,"IC50 (HMLER cells): 0.1 ± 0.02 µM; fold increase in IC50, HMLER-shECad vs HMLER [4]: ~ 3 fold; IC50 ([4]; Homo sapiens): 0.3 ± 0.02 µM"
"N.N.[Cl][Pt][Cl] [Cisplatin, reference compound]",–,–,–,–,–,–,–,–,–,–,IC50 (CAPAN-1 cells [2]): 2.2 ± 0.3 µM; IC50 (MCF-7 cells [3]): 2.4 ± 0.4 µM
"CC(=O)N(O)CCCCCNC(=O)CCC(=O)N(O)CCCCCNC(=O)CCC(=O)N(O)CCCCCN [DFO, deferoxaminemesylate salt, reference compound]",–,–,–,–,–,–,–,–,–,–,calcein fluorescence increase after DFO incubation (MCF-7 cells [5]): 132.1±16.5%
CN(Cc1ccccn1)[C@H]1CCCC[C@@H]1N(C)Cc1ccccn1 [Compound 3],0,27.7 ± 2.9,40.6 ± 2.5,32.5 ± 3.8,39.7 ± 2.9,> 100,> 100,45 ± 1,35 ± 4.2,16.5 ± 1.4,–
